Laboratory results taken from patent US20230039711A1, “AHR INHIBITORS AND USES THEREOF” (Ikena Oncology, Inc., priority 2020, published 2023).

How the values were obtained:
[1] = test system: other receptors, transporters, and kinases; test: Selectivity for AHR over other receptors, transporters, and kinases
human T cell = test: Human T cell assays; format: cell-based
AHR = biological target: T1, AHR (Homo sapiens, UniProt P35869); test: AHR translocation from cytoplasm to nucleus in the presence of a ligand, and downstream signaling in in vivo tumor models
T1 construct: host or cells: in vivo tumor models (not specified)
T1 sequence (P35869 11-848): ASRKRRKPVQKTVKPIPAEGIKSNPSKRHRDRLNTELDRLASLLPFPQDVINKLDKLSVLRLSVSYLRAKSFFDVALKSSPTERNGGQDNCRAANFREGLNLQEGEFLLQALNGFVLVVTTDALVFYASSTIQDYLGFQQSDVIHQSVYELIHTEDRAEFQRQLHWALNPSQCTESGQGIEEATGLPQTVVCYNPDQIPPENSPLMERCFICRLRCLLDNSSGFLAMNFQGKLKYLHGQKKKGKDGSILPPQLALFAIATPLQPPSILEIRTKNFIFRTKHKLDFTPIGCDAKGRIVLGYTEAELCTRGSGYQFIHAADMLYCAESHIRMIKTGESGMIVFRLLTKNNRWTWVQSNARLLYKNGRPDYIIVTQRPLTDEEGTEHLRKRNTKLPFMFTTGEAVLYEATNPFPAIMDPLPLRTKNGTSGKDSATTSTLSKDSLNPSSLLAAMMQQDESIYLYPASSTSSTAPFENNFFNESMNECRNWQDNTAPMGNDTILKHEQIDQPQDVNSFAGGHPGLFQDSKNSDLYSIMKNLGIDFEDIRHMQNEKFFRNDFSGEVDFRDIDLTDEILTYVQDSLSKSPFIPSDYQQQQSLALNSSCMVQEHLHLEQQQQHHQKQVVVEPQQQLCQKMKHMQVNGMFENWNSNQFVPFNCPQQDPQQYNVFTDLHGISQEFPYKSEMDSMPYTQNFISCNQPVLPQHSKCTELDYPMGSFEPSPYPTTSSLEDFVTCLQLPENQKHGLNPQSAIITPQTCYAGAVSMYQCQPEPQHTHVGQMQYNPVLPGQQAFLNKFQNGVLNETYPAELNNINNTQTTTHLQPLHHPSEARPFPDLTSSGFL

[2] = Nonclinical safety, single-dose and repeated-dose toxicological studies in rodent and non-rodent species; format: in vivo; settings: species not specified for these findings
[3] = Nonclinical safety studies incl. 28-day GLP study in rat; format: in vivo; settings: rats
[4] = Nonclinical safety studies incl. 28-day GLP study in monkeys; format: in vivo, monkey
[5] = Monotherapy dosing in human patients, safety; format: in vivo; settings: 200 mg, 400 mg, 800 mg, and 1200 mg once daily (QD)

## CC(C)c1cnn2c(N[C@@H]3CCc4[nH]c5ccccc5c4C3)nc(-c3cncc(F)c3)nc12 [Compound A, (R)-N-(2-(5-fluoropyridin-3-yl)-8-isopropylpyrazolo[1,5-a][1,3,5]triazin-4-yl)-2,3,4,9-tetrahydro-1H-carbazol-3-amine]
[1]
  selectivity for AHR over other receptors, transporters, and kinases: highly selective for AHR
Human T cell
  CYP1A1 gene expression: inhibits
  T cell state: induces an activated T cell state
  interleukin (IL)-22 gene expression: inhibits
  pro-inflammatory cytokine IL-2: increase
  pro-inflammatory cytokine IL-9: increase
AHR
  AHR translocating from the cytoplasm to the nucleus and downstream signaling: effectively blocks
[2]
  noteworthy findings of potential relevance to humans (general): emesis, loose stool, dehydration, body weight loss
[3]
  stomach findings: nonglandular stomach ulceration and edema
[3]; not resolved after 2 weeks of dosing cessation
  testicular findings: seminiferous tubule degeneration and debris in the epididymis lumen
[4]; monkey
  thymus weights and cortical lymphocytes: decreased
[4]; monkeys
  QTc prolongation: up to 11%
[5]
  serious adverse events (SAEs): no serious adverse events
